Results published in US9695155B2, “Herbicidal substituted pyrimidinyloxy benzene compounds” (E. I. DU PONT DE NEMOURS AND COMPANY, priority 2013, dated 2017).

Tests used:
Heteranthera limosa = test: Test B flooded paddy test; type: in vivo; conditions: Flood, 250 g ai/ha; 0 to 100 scale where 0 is no effect and 100 is complete control
In short: (§1)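 Plants at 2-leaf stage; pots flooded to 3 cm above soil and compound applied directly into paddy water, depth held throughout. After 13 to 15 days in greenhouse, visual rating versus controls on 0 (no effect) to 100 (complete control) scale.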

barnyardgrass [1] = test: Test B flooded paddy test; type: in vivo, Echinochloa crus-galli; conditions: Flood, 250 g ai/ha; 0 to 100 scale where 0 is no effect and 100 is complete control
In short: as §1

wheat [2] = test: Test A preemergence; type: in vivo, Triticum aestivum; conditions: for Wheat plant response rating (0 to 100 scale) / Plant response rating, Wheat: 125 g ai/ha; for Wheat plant response rating: 500 g ai/ha
In short: (§2)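 Scoring: eye-based comparison with untreated controls, 0 for no effect through 100 for complete control, at about day 10. Treatments: directed soil spray preemergence; foliar spray postemergence on 2–10 cm plants at the one- to two-leaf stage. Medium: loam soil with sand.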

barnyardgrass [3] = test: Test A postemergence; type: in vivo, Echinochloa crus-galli
In short: as §2

giant foxtail [4] = test: Test A postemergence; type: in vivo, Setaria faberii
In short: as §2

pigweed [5] = test: Test A preemergence; type: in vivo, Amaranthus retroflexus; conditions: for Pigweed plant response rating (0 to 100 scale) / Plant response rating, Pigweed: 125 g ai/ha; for Pigweed plant response rating: 500 g ai/ha
In short: as §2

wheat [6] = test: Test A postemergence; type: in vivo, Triticum aestivum
In short: as §2

large (Lg) crabgrass [7] = test: Test A postemergence; type: in vivo, Digitaria sanguinalis
In short: as §2

corn [8] = test: Test A preemergence; type: in vivo, Zea mays; conditions: for Corn plant response rating (0 to 100 scale) / Plant response rating, Corn: 125 g ai/ha; for Corn plant response rating: 500 g ai/ha
In short: as §2

pigweed [9] = test: Test A postemergence; type: in vivo, Amaranthus retroflexus
In short: as §2

giant foxtail [10] = test: Test A preemergence; type: in vivo, Setaria faberii; conditions: for Foxtail, Giant plant response rating (0 to 100 scale) / Plant response rating, Foxtail, Giant: 125 g ai/ha; for Foxtail, Giant plant response rating: 500 g ai/ha
In short: as §2

morningglory [11] = test: Test A preemergence; type: in vivo, Ipomoea spp.; conditions: for Morningglory plant response rating (0 to 100 scale) / Plant response rating, Morningglory: 125 g ai/ha; for Morningglory plant response rating: 500 g ai/ha
In short: as §2

velvetleaf [12] = test: Test A preemergence; type: in vivo, Abutilon theophrasti; conditions: for Velvetleaf plant response rating (0 to 100 scale) / Plant response rating, Velvetleaf: 125 g ai/ha; for Velvetleaf plant response rating: 500 g ai/ha
In short: as §2

morningglory [13] = test: Test A postemergence; type: in vivo, Ipomoea spp.
In short: as §2

large (Lg) crabgrass [14] = test: Test A preemergence; type: in vivo, Digitaria sanguinalis; conditions: for Crabgrass, Large plant response rating (0 to 100 scale) / Plant response rating, Crabgrass, Large: 125 g ai/ha; for Crabgrass, Large plant response rating: 500 g ai/ha
In short: as §2

barnyardgrass [15] = test: Test A preemergence; type: in vivo, Echinochloa crus-galli; conditions: for Barnyardgrass plant response rating (0 to 100 scale, 0 is no effect, 100 is complete control) / Plant response rating, Barnyardgrass: 125 g ai/ha; for Barnyardgrass plant response rating: 500 g ai/ha
In short: as §2

corn [16] = test: Test A postemergence; type: in vivo, Zea mays
In short: as §2

velvetleaf [17] = test: Test A postemergence; type: in vivo, Abutilon theophrasti
In short: as §2

sedge, umbrella = test: Test B flooded paddy test; type: in vivo, Cyperus difformis; conditions: Flood, 250 g ai/ha; 0 to 100 scale where 0 is no effect and 100 is complete control
In short: as §1

rice = test: Test B flooded paddy test; type: in vivo, Oryza sativa; conditions: Flood, 250 g ai/ha; 0 to 100 scale where 0 is no effect and 100 is complete control
In short: as §1

[18] = 0 to 100 scale where 0 is no effect and 100 is complete control
[19] = 125 g ai/ha, 0 to 100 scale where 0 is no effect and 100 is complete control
[20] = 500 g ai/ha, 0 to 100 scale where 0 is no effect and 100 is complete control
[21] = 125 g ai/ha, 0 to 100 scale, 0 no effect, 100 complete control
[22] = 0 to 100 scale, 0 no effect, 100 complete control, approx. 10 days
[23] = 500 g ai/ha, 0 to 100 scale, 0 no effect, 100 complete control

COc1cnc(Oc2ccccc2-n2cccn2)nc1 [Compound 227]
Plant response rating, Ducksalad (Heteranthera limosa): 0
Plant response rating, Barnyardgrass (barnyardgrass [1]): 0
Wheat plant response rating (0 to 100 scale) (wheat [2]): 0
Wheat plant response rating (wheat [2]; [18]): 0
Barnyardgrass plant response rating (barnyardgrass [3]; [19]): 0
Plant response rating, Barnyardgrass (barnyardgrass [3]; [20]): 0
Foxtail, Giant plant response rating (giant foxtail [4]; [19]): 0
Plant response rating, Foxtail, Giant (giant foxtail [4]; [20]): 10
Pigweed plant response rating (0 to 100 scale) (pigweed [5]): 10
Pigweed plant response rating (pigweed [5]; [18]): 60
Wheat plant response rating (wheat [6]; [19]): 0
Plant response rating, Wheat (wheat [6]; [20]): 0
Crabgrass, Large plant response rating (large (Lg) crabgrass [7]; [19]): 0
Plant response rating, Crabgrass, Large (large (Lg) crabgrass [7]; [20]): 10
Corn plant response rating (0 to 100 scale) (corn [8]): 0
Corn plant response rating (corn [8]; [18]): 0
Pigweed plant response rating (pigweed [9]; [19]): 10
Plant response rating, Pigweed (pigweed [9]; [20]): 60
Foxtail, Giant plant response rating (0 to 100 scale) (giant foxtail [10]): 0
Foxtail, Giant plant response rating (giant foxtail [10]; [18]): 10
Morningglory plant response rating (0 to 100 scale) (morningglory [11]): 0
Morningglory plant response rating (morningglory [11]; [18]): 0
Velvetleaf plant response rating (0 to 100 scale) (velvetleaf [12]): 10
Velvetleaf plant response rating (velvetleaf [12]; [18]): 20
Morningglory plant response rating (morningglory [13]; [19]): 0
Plant response rating, Morningglory (morningglory [13]; [20]): 10
Crabgrass, Large plant response rating (0 to 100 scale) (large (Lg) crabgrass [14]): 0
Crabgrass, Large plant response rating (large (Lg) crabgrass [14]; [18]): 10
Barnyardgrass plant response rating (0 to 100 scale, 0 is no effect, 100 is complete control) (barnyardgrass [15]): 0
Barnyardgrass plant response rating (barnyardgrass [15]; [18]): 0
Corn plant response rating (corn [16]; [19]): 0
Plant response rating, Corn (corn [16]; [20]): 0
Velvetleaf plant response rating (velvetleaf [17]; [19]): 50
Plant response rating, Velvetleaf (velvetleaf [17]; [20]): 90
Plant response rating, Sedge, Umbrella (sedge, umbrella): 0
Plant response rating, Rice (rice): 0

Clc1cnc(Oc2cccc(-c3cnoc3)c2-n2cc(Br)cn2)nc1 [Compound 291]
Plant response rating, Ducksalad (Heteranthera limosa): 0
Plant response rating, Barnyardgrass (barnyardgrass [1]): 0
Wheat plant response rating (0 to 100 scale) (wheat [2]): 0
Wheat plant response rating (wheat [2]; [18]): 0
Plant response rating, Barnyardgrass (barnyardgrass [3]; [21]): 0
Plant response rating, Barnyardgrass (barnyardgrass [3]; [20]): 40
Plant response rating, Foxtail, Giant (giant foxtail [4]; [21]): 0
Plant response rating, Foxtail, Giant (giant foxtail [4]; [20]): 50
Pigweed plant response rating (0 to 100 scale) (pigweed [5]): 60
Pigweed plant response rating (pigweed [5]; [18]): 90
Plant response rating, Wheat (wheat [6]; [21]): 0
Plant response rating, Wheat (wheat [6]; [20]): 0
Plant response rating, Crabgrass, Large (large (Lg) crabgrass [7]; [21]): 10
Plant response rating, Crabgrass, Large (large (Lg) crabgrass [7]; [20]): 60
Corn plant response rating (0 to 100 scale) (corn [8]): 0
Corn plant response rating (corn [8]; [18]): 0
Plant response rating, Pigweed (pigweed [9]; [21]): 30
Plant response rating, Pigweed (pigweed [9]; [20]): 70
Foxtail, Giant plant response rating (0 to 100 scale) (giant foxtail [10]): 20
Foxtail, Giant plant response rating (giant foxtail [10]; [18]): 80
Morningglory plant response rating (0 to 100 scale) (morningglory [11]): 0
Morningglory plant response rating (morningglory [11]; [18]): 0
Velvetleaf plant response rating (0 to 100 scale) (velvetleaf [12]): 40
Velvetleaf plant response rating (velvetleaf [12]; [18]): 60
Plant response rating, Morningglory (morningglory [13]; [21]): 30
Plant response rating, Morningglory (morningglory [13]; [20]): 40
Crabgrass, Large plant response rating (0 to 100 scale) (large (Lg) crabgrass [14]): 50
Crabgrass, Large plant response rating (large (Lg) crabgrass [14]; [18]): 90
Barnyardgrass plant response rating (0 to 100 scale, 0 is no effect, 100 is complete control) (barnyardgrass [15]): 0
Barnyardgrass plant response rating (barnyardgrass [15]; [18]): 50
Plant response rating, Corn (corn [16]; [21]): 0
Plant response rating, Corn (corn [16]; [20]): 10
Plant response rating, Velvetleaf (velvetleaf [17]; [21]): 50
Plant response rating, Velvetleaf (velvetleaf [17]; [20]): 60
Plant response rating, Sedge, Umbrella (sedge, umbrella): 0
Plant response rating, Rice (rice): 0

Clc1cnc(Oc2cc(Cl)ccc2-n2cccn2)nc1 [Compound 49]
Plant response rating, Ducksalad (Heteranthera limosa): 0
Plant response rating, Barnyardgrass (barnyardgrass [1]): 0
Plant response rating, Wheat (wheat [2]; [18]): 0
Wheat plant response rating (wheat [2]; [22]): 0
Plant response rating, Barnyardgrass (barnyardgrass [3]; [19]): 0
Plant response rating, Barnyardgrass (barnyardgrass [3]; [23]): 10
Plant response rating, Foxtail, Giant (giant foxtail [4]; [19]): 0
Plant response rating, Foxtail, Giant (giant foxtail [4]; [23]): 10
Plant response rating, Pigweed (pigweed [5]; [18]): 0
Pigweed plant response rating (pigweed [5]; [22]): 0
Plant response rating, Wheat (wheat [6]; [19]): 0
Plant response rating, Wheat (wheat [6]; [23]): 0
Plant response rating, Crabgrass, Large (large (Lg) crabgrass [7]; [19]): 0
Plant response rating, Crabgrass, Large (large (Lg) crabgrass [7]; [23]): 10
Plant response rating, Corn (corn [8]; [18]): 0
Corn plant response rating (corn [8]; [22]): 0
Plant response rating, Pigweed (pigweed [9]; [19]): 0
Plant response rating, Pigweed (pigweed [9]; [23]): 40
Plant response rating, Foxtail, Giant (giant foxtail [10]; [18]): 0
Foxtail, Giant plant response rating (giant foxtail [10]; [22]): 10
Plant response rating, Morningglory (morningglory [11]; [18]): 0
Morningglory plant response rating (morningglory [11]; [22]): 0
Plant response rating, Velvetleaf (velvetleaf [12]; [18]): 0
Velvetleaf plant response rating (velvetleaf [12]; [22]): 20
Plant response rating, Morningglory (morningglory [13]; [19]): 0
Plant response rating, Morningglory (morningglory [13]; [23]): 20
Plant response rating, Crabgrass, Large (large (Lg) crabgrass [14]; [18]): 0
Crabgrass, Large plant response rating (large (Lg) crabgrass [14]; [22]): 20
Plant response rating, Barnyardgrass (barnyardgrass [15]; [18]): 0
Barnyardgrass plant response rating (barnyardgrass [15]; [22]): 0
Plant response rating, Corn (corn [16]; [19]): 0
Plant response rating, Corn (corn [16]; [23]): 0
Plant response rating, Velvetleaf (velvetleaf [17]; [19]): 10
Plant response rating, Velvetleaf (velvetleaf [17]; [23]): 30
Plant response rating, Sedge, Umbrella (sedge, umbrella): 0
Plant response rating, Rice (rice): 0

Clc1ccc(-n2cccn2)c(Oc2ncc(Br)cn2)c1 [Compound 50]
Plant response rating, Ducksalad (Heteranthera limosa): 0
Plant response rating, Barnyardgrass (barnyardgrass [1]): 0
Plant response rating, Wheat (wheat [2]; [18]): 0
Wheat plant response rating (wheat [2]; [22]): 0
Plant response rating, Barnyardgrass (barnyardgrass [3]; [19]): 0
Plant response rating, Barnyardgrass (barnyardgrass [3]; [23]): 10
Plant response rating, Foxtail, Giant (giant foxtail [4]; [19]): 0
Plant response rating, Foxtail, Giant (giant foxtail [4]; [23]): 0
Plant response rating, Pigweed (pigweed [5]; [18]): 0
Pigweed plant response rating (pigweed [5]; [22]): 0
Plant response rating, Wheat (wheat [6]; [19]): 0
Plant response rating, Wheat (wheat [6]; [23]): 0
Plant response rating, Crabgrass, Large (large (Lg) crabgrass [7]; [19]): 0
Plant response rating, Crabgrass, Large (large (Lg) crabgrass [7]; [23]): 10
Plant response rating, Corn (corn [8]; [18]): 0
Corn plant response rating (corn [8]; [22]): 0
Plant response rating, Pigweed (pigweed [9]; [19]): 20
Plant response rating, Pigweed (pigweed [9]; [23]): 30
Plant response rating, Foxtail, Giant (giant foxtail [10]; [18]): 0
Foxtail, Giant plant response rating (giant foxtail [10]; [22]): 0
Plant response rating, Morningglory (morningglory [11]; [18]): 0
Morningglory plant response rating (morningglory [11]; [22]): 0
Plant response rating, Velvetleaf (velvetleaf [12]; [18]): 0
Velvetleaf plant response rating (velvetleaf [12]; [22]): 0
Plant response rating, Morningglory (morningglory [13]; [19]): 20
Plant response rating, Morningglory (morningglory [13]; [23]): 30
Plant response rating, Crabgrass, Large (large (Lg) crabgrass [14]; [18]): 0
Crabgrass, Large plant response rating (large (Lg) crabgrass [14]; [22]): 40
Plant response rating, Barnyardgrass (barnyardgrass [15]; [18]): 0
Barnyardgrass plant response rating (barnyardgrass [15]; [22]): 0
Plant response rating, Corn (corn [16]; [19]): 0
Plant response rating, Corn (corn [16]; [23]): 0
Plant response rating, Velvetleaf (velvetleaf [17]; [19]): 0
Plant response rating, Velvetleaf (velvetleaf [17]; [23]): 10
Plant response rating, Sedge, Umbrella (sedge, umbrella): 0
Plant response rating, Rice (rice): 0
